The test system of one assay is Ras-CVLS processing. The experiment in a line: Cell-based assay: Ras processing in Ras-transfected COS cells (immunoblot). More on the design: species or system monkey. The following applies: read-out: INHIBITION OF Ras PROCESSING IC50. The procedure:
COS monkey kidney cells were transfected by electroporation with the plasmid pSV-SPORT (Gibco/BRL) containing a cDNA insert encoding either Ras-CVLS or Ras-CVLL, leading to transient overexpression of a Ras substrate for either farnesyl protein transferase or geranylgeranyl protein transferase I, respectively (see above).
Following electroporation, cells were plated into 6-well tissue culture dishes containing 1.5 ml of Dulbecco's-modified Eagle's media (GIBCO, Inc.) supplemented with 10% fetal calf serum and the appropriate farnesyl protein transferase inhibitors. After 24 hours, media was removed and fresh media containing the appropriate drugs was re-added. […]
Membranes were blocked by incubation overnight at 4°C in PBS containing 2.5% dried milk and 0.5% Tween-20 and then incubated with a Ras-specific monoclonal antibody, Y13-259 (Furth, M.E., et al., (1982), Monoclonal antibodies to the p21 products of the transforming gene of Harvey murine sarcome virus and of the cellular ras gene family, J. Virol. 43: 294-304), in PBS containing 1% fetal calf serum for one hour at room temperature. […] The presence of processed and unprocessed Ras-CVLS or Ras-CVLL was detected using a colorimetric peroxidase reagent (4-chloro-1-naphthol) as described by the manufacturer (Bio-Rad).

For assay [1], the target named is T1, farnesyl protein transferase (FPT) (Rattus norvegicus, UniProt Q02293+Q04631).
T1 construct: partially purified rat brain farnesyl protein transferase (FPT); from tissue; host or cells: rat brain
In words: In vitro enzyme assay: inhibition of farnesyl protein transferase (transfer of [3H]farnesyl to Ras-CVLS). The assay is classed as biochemical. The source says:
(§1) Both farnesyl protein transferase (FPT) and geranylgeranyl protein transferase (GGPT) I were partially purified from rat brain by ammonium sulfate fractionation followed by Q-Sepharose (Pharmacia, Inc.) anion exchange chromatography essentially as described by Yokoyama et al (Yokoyama, K., et al., (1991), A protein geranylgeranyltransferase from bovine brain: Implications for protein prenylation specificity, Proc. Natl. Acad. Sci USA 88: 5302-5306, the disclosure of which is incorporated herein by reference thereto). Two forms of val^12-Ha-Ras protein were prepared as substrates for these enzymes, differing in their carboxy terminal sequence. One form terminated in cysteine-valine-leucine-serine (Ras-CVLS) the other in cystein-valine-leucine-leucine (Ras-CVLL). […]
Several methods for measuring farnesyl protein transferase activity have been described (Reiss et al 1990, Cell 62: 81; Schaber et al 1990, J. Biol. Chem. 265: 14701; Manne et al 1990, PNAS 87: 7541; and Barbacid & Manne 1993, U.S. Patent No. 5,185,248). […] Filter mats were washed once with 6% TCA, 2% SDS and radioactivity was measured in a Wallac 1204 Betaplate BS liquid scintillation counter. Percent inhibition was calculated relative to the DMSO vehicle control.

Assay [2] concerns Normal human HEPM fibroblasts. In words: Cell Mat assay: inhibition of normal cell growth (cell mat). The settings on record: Fibroblast, normal cell monolayer. The assay is classed as cell-based. Here is the method:
(§2) Normal human HEPM fibroblasts were planted in 3.5 cm dishes at a density of 5 x 10^4 cells/dish in 2 ml growth medium, and incubated for 3-5d to achieve confluence. Medium was aspirated from each dish and the indicator tumor cells, T24-BAG4 human bladder carcinoma cells expressing an activated H-ras gene, were planted on top of the fibroblast monolayer at a density of 2 x 10^3cells/dish in 2 ml growth medium, and allowed to attach overnight. Compound-induced colony inhibition was assayed by addition of serial dilutions of compound directly to the growth medium 24 h after tumor cell planting, and incubating cells for an additional 14 d to allow colony formation. Assays were terminated by rinsing monolayers twice with phosphate-buffered saline (PBS), fixing the monolayers with a 1% glutaraldehyde solution in PBS, then visualizing tumor cells by staining with X-Gal (Price, J., et al., Lineage analysis in the vertebrate nervous system by retrovirus-mediated gene transfer, Proc. Natl. Acad. Sci.84, 156-160(1987)). […] The therapeutic index of the compound was quantitatively expressed as the ratio of mIC50/tIC50, with values greater than one indicative of tumor target specificity.

The subject of assay [3] is T24-BAG4 human bladder carcinoma cells expressing an activated H-ras gene. In words: Cell Mat assay: inhibition of tumor cell growth. The assay is classed as cell-based. Here is the method:
as §2

Assay [4] has as its target T2, geranylgeranyl protein transferase (GGPT) I (Rattus norvegicus, UniProt P53610+Q04631).
T2 construct: geranylgeranyl protein transferase (GGPT) I were partially purified from rat brain; from tissue; host or cells: rat brain
The experiment in a line: In vitro enzyme assay: inhibition of geranylgeranyl protein transferase I (Ras-CVLL as acceptor). The assay is classed as biochemical. The following applies: Ras-CVLL as isoprenoid acceptor, read-out: inhibits GGPT.
From the text: as §1, with “(Ras-CVLL). Ras-CVLS is a substrate for the famesyl protein transferase while Ras-CVLL is a substrate for geranylgeranyl protein transferase I. The cDNAs encoding these proteins were constructed so that the proteins contain an amino-terminal extension of 6 histidine residues. Both proteins were expressed in Escherichia coli and purified using metal chelate affinity chromatography. The radiolabelled isoprenyl pyrophosphate substrates, [3H]farnesyl pyrophosphate and [^3H]geranylgeranyl pyrophosphate, were purchased from DuPont/New England Nuclear.” for “(Ras-CVLL).”

The results in this text go back to patent EP0723539B1, “TRICYCLIC SULFONAMIDE COMPOUNDS USEFUL FOR INHIBITION OF G-PROTEIN FUNCTION AND FOR TREATMENT OF PROLIFERATIVE DISEASES” (SCHERING CORPORATION, priority 1993, dated 1995).

In the case of `C=CS(=O)(=O)N1CCC(=C2c3ccc(Cl)cc3CCc3cccnc32)CC1` [Compound 2.9], the IC50 was 0.01 to 10 µM in the assay with Ras-CVLS processing; 25 µM in assay [2]; 6.3 µM in assay [3] (Homo sapiens, Ras-transformed tumor cells). Moreover, in assay [1] (partially purified rat brain FPT, Ras-CVLS farnesylation), the “FPT IC50” value is 0.01 to 10 µM.
Regarding `O=S(=O)(Cc1ccccc1)N1CCC(=C2c3ccc(Cl)cc3CCc3cccnc32)CC1` [Compound 2.12], the inhibition at 42 µM in assay [4] was 14%. Moreover, the “selective for FPT inhibition” value in assay [1] (FPT versus GGPT) is “at least 32 fold”. In addition, the “antiproliferative activity against Ras-transformed cells (in words)” value in assay [3] was “only weak antiproliferative activity”.
